Like-named read-outs stand apart in the source and are kept apart here. Blank lines part the entries; values can stand above or below the compound they belong to.
Key:
[1] = molecular target: ERK1 (Homo sapiens, UniProt P27361); assay: ERK1 and 2 Enzymatic Inhibition Assay (ERK1); type: biochemical; settings: 10 assay concentrations 2×10^−6 M to 6×10^−11 M, 1% DMSO
Procedure: (§1) ERK1 and 2 Enzymatic Inhibition Assay
(§2) For the Ki determination assay, 200 μM stock solutions of compounds were subjected to a serial, semi-logarithmic dilution using 100% DMSO as a solvent. 10 distinct concentrations were prepared, with a dilution endpoint of 6×10^−9 M in 100% DMSO. 100% DMSO was used as a control. 10 μL from each of the serial dilutions were aliquoted into separate wells of a 96-well plate and 90 μL of water were added to each of those wells. The plate was shaken thoroughly, and 5 μL from each of the plate's wells were transferred into wells of the assay plate. The final volume of wells in the assay plate was 50 μL. All compounds were tested at 10 assay concentrations in the range from 2×10^−6 M to 6×10^−11 M. The final DMSO concentration in the wells of the assay plate was 1% in all cases.

[2] = molecular target: ERK2 (Homo sapiens, UniProt P28482); assay: ERK1 and 2 Enzymatic Inhibition Assay (ERK2); type: biochemical; settings: 10 assay concentrations 2×10^−6 M to 6×10^−11 M, 1% DMSO
Procedure: as §1, §2

[3] = tested on: drug-sensitive cell lines of Table 4; assay: Cell line growth retardation assay, average over sensitive cohort; type: cell-based, Human; settings: geometric mean of IC50s over sensitive cohort (Table 4), 6 days growth, read-out: AvgSens IC50
Procedure: (§3) Cell Line Growth Retardation Assay
(§4) Cells were seeded at densities of 1,000-5,000 cells per well in 48-well tissue culture plates. After a 24 h rest period, cells were treated with compound at 10 μM, 2 μM, 0.4 μM, 0.08 μM, 0.016 μM, and 0.0032 μM. A group of cells were treated with the vehicle in which the compound was prepared and served as a control. The cells were grown in the presence of compounds for 6 days and were counted on day 0 and day 6. All cell counting was performed using a Synentec Cellavista plate imager. […] Growth inhibition was calculated as a ratio of cell population doublings in the presence of compound versus the absence of compound. […] IC50 values for each compound were calculated by fitting curves to data points from each dose-response assay using the Proc NLIN function in SAS for Windows version 9.2 (SAS Institute, Inc.).
(§5) Designation of Sensitivity and Resistant Cohorts and Calculation of Average IC50 Values
(§6) Human cancer cell lines were grouped as “sensitive” or “resistant” to ERK1 inhibition based on whether their growth was retarded by KO-947 (i.e., 1,5,6,8-tetrahydro-6-(phenylmethyl)-3-(4-pyridinyl)-7H-pyrazolo[4,3-g]quinazolin-7-one) and SCH772984 (i.e., (3R)-1-[2-oxo-2-[4-[4-(2-pyrimidinyl)phenyl]-1-piperazinyl]ethyl]-N-[3-(4-pyridinyl)-1H-indazol-5-yl]-3-pyrrolidinecarboxamide) (data not shown; see Table 4). These sensitive and resistant cohorts were interrogated for response to each compound, and IC50s were calculated for each cell line using the same technique described above. Average IC50s for the sensitive and resistant cohorts were calculated as geometric means of the group.

[4] = tested on: drug-resistant cell lines of Table 4; assay: Cell line growth retardation assay, average over resistant cohort; type: cell-based, Human; settings: geometric mean of IC50s over resistant cohort (Table 4), 6 days growth, read-out: AvgRes IC50
Procedure: as §3, §4, §5, §6

Chain of ERK1 (P27361 whole entry): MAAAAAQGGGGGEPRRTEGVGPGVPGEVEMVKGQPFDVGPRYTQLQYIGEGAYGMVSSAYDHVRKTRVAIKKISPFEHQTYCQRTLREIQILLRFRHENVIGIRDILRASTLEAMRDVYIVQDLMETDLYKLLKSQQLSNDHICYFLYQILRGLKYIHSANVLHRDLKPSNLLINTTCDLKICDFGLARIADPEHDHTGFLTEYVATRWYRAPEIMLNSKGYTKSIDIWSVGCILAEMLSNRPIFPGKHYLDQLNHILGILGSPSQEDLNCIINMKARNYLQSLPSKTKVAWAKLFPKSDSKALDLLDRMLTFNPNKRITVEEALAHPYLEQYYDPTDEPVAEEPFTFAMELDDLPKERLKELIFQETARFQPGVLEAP
Chain of ERK2 (P28482 whole entry): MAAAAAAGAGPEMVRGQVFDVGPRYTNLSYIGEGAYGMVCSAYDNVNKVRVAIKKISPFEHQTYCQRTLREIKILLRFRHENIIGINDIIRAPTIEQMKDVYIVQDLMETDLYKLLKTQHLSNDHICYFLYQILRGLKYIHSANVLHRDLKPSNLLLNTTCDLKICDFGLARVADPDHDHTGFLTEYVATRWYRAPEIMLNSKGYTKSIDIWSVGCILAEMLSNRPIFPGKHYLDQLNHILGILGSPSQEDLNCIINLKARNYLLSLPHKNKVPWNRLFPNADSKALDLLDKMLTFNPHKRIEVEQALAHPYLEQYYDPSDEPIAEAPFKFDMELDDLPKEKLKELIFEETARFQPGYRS

Compound: O=C(c1ncc(-c2c[nH]c3ncc(N4CCOCC4)cc23)cn1)N1CCC[C@H]1c1ccccc1 [Compound 19, (S)-(5-(5-morpholino-1H-pyrrolo[2,3-b]pyridin-3-yl)pyrimidin-2-yl)(2-phenylpyrrolidin-1-yl)methanone]
Kd [1]: > 100 nM
Kd [2]: > 100 nM
IC50 ([3]; Homo sapiens, 144 h): > 500 nM
IC50 ([4]; Homo sapiens, 144 h): > 500 nM

Compound: C[C@H](NC(=O)c1ncc(-c2c[nH]c3ncc(NCCO)cc23)cn1)c1ccccc1 [Compound 68]
Kd [1]: 11 to 100 nM
Kd [2]: 11 to 100 nM

Compound: c1ccc([C@@H]2CN=C(c3ncc(-c4c[nH]c5ncc(N6CCOCC6)cc45)cn3)O2)cc1 [Compound 54, (R)-4-(3-(2-(5-phenyl-4,5-dihydrooxazol-2-yl)pyrimidin-5-yl)-1H-pyrrolo[2,3-b]pyridin-5-yl)morpholine]
IC50 [4]: > 500 nM

Compound: C[C@@H](Cc1ccccc1)NC(=O)c1ncc(-c2c[nH]c3ncc(N4CCOCC4)cc23)cn1 [Compound 30, (S)-5-(5-morpholino-1H-pyrrolo[2,3-b]pyridin-3-yl)-N-(1-phenylpropan-2-yl)pyrimidine-2-carboxamide]
Kd [1]: > 100 nM
Kd [2]: > 100 nM

Compound: O=C(Nc1ccccc1)c1ncc(-c2c[nH]c3ncc(N4CCOCC4)cc23)cn1 [Compound 23, 5-(5-morpholino-1H-pyrrolo[2,3-b]pyridin-3-yl)-N-phenylpyrimidine-2-carboxamide]
Kd [1]: > 100 nM
Kd [2]: > 100 nM

Compound: c1ccc([C@@H]2COC(c3ncc(-c4c[nH]c5ncc(N6CCOCC6)cc45)cn3)=N2)cc1 [Compound 52, (R)-4-(3-(2-(4-phenyl-4,5-dihydrooxazol-2-yl)pyrimidin-5-yl)-1H-pyrrolo[2,3-b]pyridin-5-yl)morpholine]
IC50 [3]: > 500 nM
IC50 [4]: > 500 nM

Now from value to compound, other results behind:

Kd [1]: 11 to 100 nM
Kd [2]: 11 to 100 nM
Compound: CCN1C[C@H](c2ccccc2)N=C1c1ncc(-c2c[nH]c3ncc(N4CCOCC4)cc23)cn1 [Compound 51, (S)-4-(3-(2-(1-ethyl-4-phenyl-4,5-dihydro-1H-imidazol-2-yl)pyrimidin-5-yl)-1H-pyrrolo[2,3-b]pyridin-5-yl)morpholine]
IC50 ([3]; Homo sapiens, 144 h): 251 to 500 nM
IC50 ([4]; Homo sapiens, 144 h): > 500 nM

Kd [1]: 11 to 100 nM
Kd [2]: 11 to 100 nM
Compound: O=C(NCCc1cccc(C(F)(F)F)c1)c1ncc(-c2c[nH]c3ncc(N4CCOCC4)cc23)cn1 [Compound 64, 5-(5-morpholino-1H-pyrrolo[2,3-b]pyridin-3-yl)-N-(3-(trifluoromethyl)phenethyl)pyrimidine-2-carboxamide]

Kd [1]: 11 to 100 nM
Kd [2]: 11 to 100 nM
Compound: C[C@@H](CNC(=O)c1ncc(-c2c[nH]c3ncc(N4CCOCC4)cc23)cn1)c1ccccc1 [Compound 33]

Kd [1]: 11 to 100 nM
Kd [2]: ≤ 10 nM
Compound: O=C(NCCc1ccccc1C(F)(F)F)c1ncc(-c2c[nH]c3ncc(N4CCOCC4)cc23)cn1 [Compound 59, 5-(5-morpholino-1H-pyrrolo[2,3-b]pyridin-3-yl)-N-(2-(trifluoromethyl)phenethyl)pyrimidine-2-carboxamide]

Kd [1]: ≤ 10 nM
Kd [2]: 11 to 100 nM
Compound: C[C@H](NC(=O)c1ncc(-c2c[nH]c3ncc(N4CCOCC4)cc23)cn1)c1ccccc1C#N [Compound 48, (S)—N-(1-(2-cyanophenyl)ethyl)-5-(5-morpholino-1H-pyrrolo[2,3-b]pyridin-3-yl)pyrimidine-2-carboxamide]

Kd [1]: 11 to 100 nM
Kd [2]: 11 to 100 nM
Compound: O=C(NCCc1cccc(F)c1)c1ncc(-c2c[nH]c3ncc(N4CCOCC4)cc23)cn1 [Compound 63, N-(3-fluorophenethyl)-5-(5-morpholino-1H-pyrrolo[2,3-b]pyridin-3-yl)pyrimidine-2-carboxamide]

Kd [1]: ≤ 10 nM
Kd [2]: ≤ 10 nM
Compound: O=C(NCCc1ccccc1F)c1ncc(-c2c[nH]c3ncc(N4CCOCC4)cc23)cn1 [Compound 58, N-(2-fluorophenethyl)-5-(5-morpholino-1H-pyrrolo[2,3-b]pyridin-3-yl)pyrimidine-2-carboxamide]
